Results taken from patent US20260242874A1, “METHOD OF PREDICTING RESPONSE TO TREATMENT” (LINNANE PHARMA AB, priority 2023, published 2026).

Legend:
[1] = system: non-muscle invasive bladder cancer tumors; test: Tumor histopathology of biopsies; type: in vivo, human; settings: treated tumors compared to the placebo group
Text: The tumor response was further evaluated by histopathology. […] A complete response was confirmed by a lack of tumor tissue in the control biopsy or presence of minor residual tissue stroma without tumor cells. In the partial responders, fragmentation and cell shedding left few intact papilli and the tissue surface appeared denuded. In addition, tumor tissue surrounding the target lesion was affected in the responding patients, including satellite tumors, which had disappeared.
Tumor biopsies, collected at the time of surgery were evaluated by histopathology, using established parameters for scoring of Grade and Stage/Invasiveness. Tissue samples were analyzed by a designated study uro-pathologist. Both grading classifications (WHO 1973 and 2004/2016) were used. Biopsies from healthy tissue areas distant from the tumor were collected for comparison.

bladder tumor cells = test: Cell shedding into urine after intravesical instillation; type: in vivo, human
Procedure: Intravesical alpha1-oleate instillations triggered a rapid tumor response, which was quantified by comparing the pre-instillation sample in each patient to the first urine sample obtained post instillation (≤2 hours).
To quantify the shedding of cells and cell clusters into the urine, samples were obtained from each patient prior to and after each instillation of alpha1-oleate or placebo (Visit 1-Visit 6). Cell shedding was quantified by counting the total number of epithelial cells in a unit of uncentrifuged urine under light microscopy, using a hemocytometer chamber. Changes in cell shedding were quantified at each visit, by comparing cell numbers in samples obtained before and after each instillation. The cell clusters were scored based on the examination of these samples by an experienced pathologist on a range of 0-2 where 0=no clusters and 2=the highest number of clusters.

shed bladder tumor cells = test: DNA strand breaks by TUNEL staining of shed cells; type: in vivo, human; settings: shed cells post-instillation vs pre-instillation, all treated patients
Procedure: Double strand DNA breaks were quantified by TUNEL staining, comparing shed cells post alpha1-oleate instillation, to the pre-instillation samples.
DNA fragmentation was detected using the terminal deoxynucleotidyl transferase dUTP nick end-labelling (TUNEL) assay (Click-iT TUNEL Alexa Fluor 488 imaging assay kit, ThermoFisher). Tissue sections were de-paraffinized with xylene followed by serial dehydration with ethanol (100, 95, 75 and 50%). Dehydrated sections were fixed (4% PFA, 15 min), permeabilized (DNase-free Protease K solution 20 μg/mL, 15 min) and incubated with TUNEL reaction mixture containing TdT for 60 min at 37° C. After the TUNEL reaction, sections were incubated with Click-iT reaction mixture (30 min, 37° C.). Sections were counterstained with DAPI (1 μg/mL, 5 minutes), mounted in Fluoromount aqueous mounting media, and analyzed by fluorescence microscopy (Zeiss). Fluorescence intensities were quantified by ImageJ and net mean fluorescence intensity calculated after subtraction of background fluorescence.

[2] = system: cancer related genes in bladder tumors; test: Gene expression analysis (RNA sequencing) of tumors; type: in vivo, human
Text: The tumor response was characterized in greater detail by sequencing of RNA extracted from tumor tissue obtained at TURB and from biopsies obtained from adjacent tissue with a healthy appearance.
Individual tumors in patients treated with alpha1-oleate were defined as complete responders (CR), if the tumor was removed, partial responders (PR) if the tumor size was reduced, stable disease if the tumor size was unchanged (SD) or as non-responders, if the tumor size increased (Cut off=25% change in tumor size) (FIG. 1a). The effects of alpha1-oleate on gene expression were further examined for individual patients and tumors, using […], and differences were detected relative to the clinical treatment response of each tumor. By Principal component analysis (PCA FIG. 1b) the majority of responding tumors formed a cluster with a similar overall gene expression profile.
RNA was extracted from tissues stabilized in RNAlater using the AllPrep DNA/RNA/miRNA Universal Kit. Disruption was in the TissueLyser system and CK28 Precellys tubes and by homogenization in the QIAshredder homogenizer. The quantity and quality of the RNA samples were evaluated using NanoDrop and Agilent 2100 Bioanalyzer. RNA samples were prepared by Illumina TruSeq Stranded mRNA Library Prep Kit (20020594), and libraries were multiplexed and sequenced using NextSeq 500/550 High Output Kits (v2.5 2×75 Cycles) with an average of 22 million reads per sample. Raw sequencing data was demultiplexed using bcl2fastq (version 2.18) and RSEM (1.3) was used for abundance estimation using the human genome release 37/Ensemble 75. Samples were thoroughly QCed and visualized using dimensionality reduction (i.e PCA), MA-plots as well as RNA-seq intrinsic biases (such as GC bias, transcriptome complexity and alignment quality). Differential expression analysis was performed using R (version 3.4) and the packages limma and DESeq2. Fold change were calculated by comparing tumors in the treated to the placebo group. Relative expression levels were analyzed and genes with an absolute fold change >2.0 and P<0.05 were considered as differentially expressed. Heat-maps were constructed using the Gitools 2.1.1 software. Differentially expressed genes were functionally characterized using the Ingenuity Pathway Analysis version 57662101 (IPA, Qiagen) software.
In a clinical study from an ongoing randomized, placebo-controlled phase II trial in patients with non-muscle invasive bladder cancer (NMIBC), treatment with the tumor-killing peptide-lipid complex Alpha1-Hamlet, by instillations to the patients' bladders, has shown promising therapeutic effects. Tumor tissue samples of patients (obtained post-treatment at visit number 6) were analyzed.

adiponectin = test: Adiponectin-ELISA of urine samples; type: in vivo, human; settings: treated patients vs placebo, P<0.001
Procedure: To investigate levels of adiponectin protein in the urine samples of patients, an Adiponectin-ELISA test (Proteintech) was performed. The signal (absorbance) values were measured at 480 nm and interpolated to concentration (pg/mL) values using a linear regression statistical analysis. […] Graph showing urine adiponectin levels in both groups, with samples taken pre Visit 1, post Visit 1, Post Visit 3 and Post Visit 6. Line show change in median urine adiponectin levels (FIG. 4). There was statistically significant positive correlation between number of cells (shed) in urine samples and measure adiponectin levels (P=0,002), using linear regression (FIG. 4). Statistical analysis was done in GraphPad Prism.

NMIBC = test: Overall tumor response in patients with NMIBC (clinical and molecular end points); type: in vivo, human
Text: Selecting relevant treatment end points is especially challenging for conditions where cure is elusive. New molecular tools may offer increased resolution of the disease response, to complement clinical observation and understand the potential of new drug candidates. This study used a combination of clinical and molecular tools to define the tumor response to alpha1-oleate in patients with NMIBC. In addition to the evaluation of the change in tumor size, the tumor response was defined by the shedding of tumor cells and fragments into the urine, by the uptake of alpha1-oleate by the tumor and by evidence of tumor cell specific apoptosis. Gene expression analysis of tumor RNA further identified interesting differences between the groups defined as CR, PR and NR by visual inspection.
After diagnosis and informed consent, the subjects received intra-vesical instillations of either alpha1-oleate or placebo on six occasions during one month preceding a scheduled transurethral resection (TURB). A safety follow-up was performed 52 days after the first instillation.

[3] = system: cancer related genes in bladder tumors; test: Gene expression analysis (RNA sequencing) of tumors; type: in vivo, human; settings: log FC≤−0.10; individual tumors
tumor cells = settings: cited from earlier work
skin papillomas = settings: topical application; cited from earlier work
bladder cancer cells = settings: local instillations; cited from earlier work

Molecule: alpha1-oleate: tumor-killing peptide-lipid complex of the synthetic alpha1 peptide (aa 1-39 of human alpha-lactalbumin) and oleate
- tumor response by histopathology [1]: Significant changes
- cell numbers in urine post instillation (bladder tumor cells; at each visit compared to each pre-instillation sample): highly significant increase
- cell shedding (bladder tumor cells; first urine sample post instillation (≤2 hours)): detected in all patients
- TUNEL staining (double strand DNA breaks) (shed bladder tumor cells): marked increase
- ADIPOQ gene expression FC ([2]; 8.5 mM treated patients compared to placebo treated patients, tumor tissue post-treatment at visit 6): −5353.7
- number of genes regulated (heat map analysis) ([2]; RNA from tumor tissue obtained at TURB): over 3500
- PRAME log FC ([2]; all treated tumors): ≤ −10
- PTPRT log FC ([2]; all treated tumors): ≤ −10
- EGR3 expression ([2]; in vivo): strongly downregulated
- bladder cancer related genes ([2]; in vivo): strongly inhibited
- tumor microenvironment pathway genes (VEGFD, TGFB2, TGFB3, FGF1, FGF5, FGF7, FGF10, IGF1) ([2]; in vivo): downregulated
- ADIPOQ dependent molecules downregulated ([2]; network analysis): 66
- ADIPOQ dependent molecules strongly regulated ([2]; network analysis): 78
- ADIPOQ dependent molecules upregulated ([2]; network analysis): 12
- inhibited genes that were bladder cancer related ([2]; of the 297 inhibited genes): 31/297
- innate immune response genes ([2]; pathway analysis, cytokine storm signaling and G protein coupled receptor signaling): strongly down-regulated
- urine adiponectin levels (adiponectin): significantly higher
- responders by tumor cell shedding, apoptosis and inhibition of cancer related genes (NMIBC): all patients in this study were definable as responders
- number of genes strongly down-regulated in all treated tumors [3]: 297

B1: BAMLET: complex made by mixing bovine alpha-lactalbumin with oleic acid (protein, UniProt P00711 20-142, looked up)
Alpha-lactalbumin: EQLTKCEVFRELKDLKGYGGVSLPEWVCTTFHTSGYDTQAIVQNNDSTEYGLFQINNKIWCKDDQNPHSSNICNISCDKFLDDDLTDDIMCVKKILDKVGINYWLAHKALCSEKLDQWLCEKL
modifications: oleic acid complex
- effects on tumour cells compared with HAMLET (tumor cells; Rammer et al. (2010)): qualitatively similar effects

B2: HAMLET: human alpha-lactalbumin made lethal to tumor cells; complex of partially unfolded α-lactalbumin and oleic acid (protein, UniProt P00709 20-142, looked up)
Alpha-lactalbumin: KQFTKCELSQLLKDIDGYGGIALPELICTMFHTSGYDTQAIVENNESTEYGLFQISNKLWCKSSQVPQSRNICDISCDKFLDDDITDDIMCAKKILDIKGIDYWLAHKALCTEKLEQWLCEKL
modifications: oleic acid complex
- tumoricidal activity in vitro (tumor cells): kills many types of tumor cells
- effect on skin papillomas (skin papillomas): removed or reduced skin papillomas
- effect on bladder cancer cells (bladder cancer cells): killed bladder cancer cells but not healthy cells in surrounding tissues
- effect on tumor size (bladder cancer cells): caused a reduction in tumor size
